Experimental data taken from paper PMC7617869, “Molecular glues that inhibit deubiquitylase activity and inflammatory signaling” (Nature Structural & Molecular Biology, 2025).
Several values for one entry are separate records, joined by “and”; a condition that tells them apart may be missing. Equal values may be shown once.

Tests used:
ARISC (FL) = biological target: T1, ARISC (FL) (Homo sapiens, UniProt P46736+Q6UWZ7+Q9NXR7); assay: In-gel deubiquitylation assay, TAMRA-labeled K63-tetraubiquitin, ARISC; format: biochemical; settings: 10 μM or 100 μM inhibitor
T1 construct: full-length BRISC (FL), ARISC (FL); made in house; host or cells: Spodoptera frugiperda Sf9 insect cells (MultiBac)
Protocol: The inhibitor capzimin (Merck) was diluted in 1 mM DTT and incubated for 30 min at room temperature to reduce disulfide bonds required for inhibitor activity. […] DUBs were incubated with 750 nM TAMRA-labeled K63-tetraubiquitin (LifeSensors, SI6304T) for 10 min at 30 °C. Reactions were quenched by adding 2.5 μl of 4× SDS–PAGE loading dye (240 mM Tris-HCl pH 6.8, 40% v/v glycerol, 8% w/v SDS, 0.04% w/v bromophenol blue and 5% v/v β-mercaptoethanol). The samples were resolved on 4–12% NuPAGE Bis–Tris gels (Thermo Fisher Scientific). Gels were scanned using an iBright FL 1500 (Thermo Fisher Scientific) (excitation, 515–545 nm; emission, 568–617 nm; exposure, 500 ms).

BRISC = biological target: T2, BRISC (Homo sapiens, UniProt P46736+Q15018+Q9NXR7); assay: Michaelis–Menten analysis of BRISC inhibition; format: biochemical
T2 construct: made in house; host or cells: Spodoptera frugiperda (Sf9) insect cells, MultiBac
Protocol: (§1) IQF assays were performed in DUB reaction buffer containing 50 mM HEPES–NaOH pH 7.0, 100 mM NaCl, 0.1 mg ml^−1 BSA, 1 mM DTT and 0.03% v/v Brij-35. […] The final concentration of BRISC WT, all BRISC mutants, HsBRISCΔLoop, MmBRISC and DrBRISCΔNΔC was 1 nM. Other enzymes were tested at the following concentrations: 5 nM ARISC (FL), 10 nM CfBRISCΔNΔC, 250 nM AMSH* (ref. [43]), 500 nM USP2 and 1 μM trypsin (Sigma, 9002-07-7). For Michaelis–Menten experiments, 1 nM BRISC with 0–1 μM IQF K63-linked diubiquitin substrate was used. Michaelis–Menten analyses and Lineweaver–Burk plots were calculated using GraphPad Prism (version 9.0).

ARISC = biological target: T3, ARISC (Homo sapiens, UniProt P46736+Q6UWZ7+Q9NXR7); assay: ARISC IQF DUB activity assay; format: biochemical; settings: Fig. 1g, ARISC
T3 construct: full-length BRISC (FL), ARISC (FL); made in house; host or cells: Spodoptera frugiperda (Sf9) insect cells, MultiBac
Protocol: as §1
To assess enzymatic activity, BRISC complexes were diluted to concentrations between 1 nM and 50 nM. […] Then, 20-μl enzyme reactions were carried out in 384-well black flat-bottom low-flange plates (Corning, 35373). DUB activity was measured using IQF K63-linked diubiquitin (LifeSensors, DU6303) at 50 nM. Cleaved diubiquitin was monitored by measuring fluorescence intensity (excitation, 544 nm; emission, 575 nm; dichroic mirror, 560 nm). Fluorescence intensity was measured every minute for 30 min at 30 °C. Fluorescence intensity units were plotted against time to generate a linear reaction progress curve, where the initial velocity (V0) corresponds to the gradient of the curve (typically achieved within 15 min). IC50 values were calculated using the GraphPad Prism (version 9.0) built-in dose–response equation for inhibitor concentration versus response (variable slope).

BRISC (FL) = biological target: T4, BRISC (FL) (Homo sapiens, UniProt P46736+Q15018+Q9NXR7); assay: Native MS of BRISC with inhibitor; settings: 10 μM BRISC, 1 mM inhibitor
T4 construct: full-length BRISC (FL), ARISC (FL); made in house; host or cells: Spodoptera frugiperda Sf9 insect cells (MultiBac)
Protocol: Samples were buffer-exchanged into 500 mM ammonium acetate using Zeba Spin (7-kDa molecular weight cutoff) desalting columns (Thermo Fisher Scientific). Samples were analyzed by nanoelectrospray ionization MS using a quadrupole orbitrap MS (Q-Exactive UHMR, Thermo Fisher Scientific) using gold–palladium-coated nanospray tips prepared in-house. The MS instrument was operated in positive ion mode using a capillary voltage of 1.5 kV, capillary temperature of 250 °C and S-lens radiofrequency of 200 V. In-source trapping was used with a desolvation voltage of −200 V for 4 μs. Extended trapping was not used. The quadrupole mass range was 2,000–15,000 m/z. Nitrogen gas was used in the higher-energy collisional dissociation cell with a trap gas pressure setting of 5. Orbitrap resolution was 6,250 and detector m/z optimization was low. Five microscans were averaged and an automatic gain control target of 2 × 10^5 was used. Mass calibration was performed by a separate injection of sodium iodide at a concentration of 2 μg μl^−1. Data processing was performed using QualBrowser (version 4.2.28.14) and deconvoluted using UniDec[82].

inhibition of ARISC activity against tetraubiquitin (ARISC (FL)): did not inhibit
Initial velocity (FU/min) (BRISC; di-Ub-TAMRA 1000 nM, inhibitor 3.12 μM): 1134 FU/min
mode of inhibition (BRISC; enzyme activity at different substrate concentrations): not competitive inhibitors
Normalised V0 (ARISC; FX-171-C 0.02 μM): 1.1225 and 0.966 and 1.021
Normalised V0 (ARISC; FX-171-C 0.0399999 μM): 1.087 and 0.9846 and 0.8911
Normalised V0 (ARISC; FX-171-C 0.0599997 μM): 1.028 and 0.9352 and 0.9674
Normalised V0 (ARISC; FX-171-C 0.0799994 μM): 1.023 and 0.9476 and 0.8942
Normalised V0 (ARISC; FX-171-C 0.119998 μM): 0.9409 and 0.9459 and 1.0338
Normalised V0 (ARISC; FX-171-C 0.199996 μM): 1.019 and 0.9437 and 0.9099
Normalised V0 (ARISC; FX-171-C 0.799936 μM): 0.9597 and 0.9609 and 1.054
Normalised V0 (ARISC; FX-171-C 1.25984 μM): 0.9789 and 0.9339 and 0.958
Normalised V0 (ARISC; FX-171-C 1.9996 μM): 1.042 and 0.9796 and 1.015
Normalised V0 (ARISC; FX-171-C 3.159 μM): 0.8585 and 0.91 and 0.9812
Normalised V0 (ARISC; FX-171-C 5.19739 μM): 0.9682 and 0.9452 and 1.064
Normalised V0 (ARISC; FX-171-C 7.99364 μM): 0.9509 and 0.8953 and 0.9841
Normalised V0 (ARISC; FX-171-C 12.7839 μM): 1.013 and 0.9875 and 0.9597
Normalised V0 (ARISC; FX-171-C 19.96 μM): 0.9552 and 0.8845 and 0.9378
Normalised V0 (ARISC; FX-171-C 31.4999 μM): 0.9912 and 0.9889 and 0.9686
Normalised V0 (ARISC; FX-171-C 50.147 μM): 0.9345 and 0.8543 and 0.967
Normalised V0 (ARISC; FX-171-C 79.7601 μM): 0.9819 and 0.9178 and 0.8968
Normalised V0 (ARISC; FX-171-C 125.99 μM): 0.9989 and 0.9716 and 0.9683
Normalised V0 (ARISC; FX-171-C 199.922 μM): 0.744 and 0.5764 and 0.798
Structure (SMILES): O=C(NC1C2CNCC21)c1nn(C(=O)c2c(Cl)cccc2Cl)cc1NC(=O)c1c(Cl)cccc1Cl (centres unmarked) [FX-171-C]
Initial velocity (FU/min) (BRISC; di-Ub-TAMRA 31.2 nM, inhibitor 48 nM): 121.5 FU/min and 126.3 FU/min and 146.6 FU/min
Initial velocity (FU/min) (BRISC; di-Ub-TAMRA 31.2 nM, inhibitor 195 nM): 104.4 FU/min and 118.9 FU/min and 118.7 FU/min
Initial velocity (FU/min) (BRISC; di-Ub-TAMRA 31.2 nM, inhibitor 781 nM): 76.24 FU/min and 88.16 FU/min and 98.75 FU/min
Initial velocity (FU/min) (BRISC; di-Ub-TAMRA 31.2 nM, inhibitor 3.12 μM): 58.53 FU/min and 46.27 FU/min and 64.26 FU/min
Initial velocity (FU/min) (BRISC; di-Ub-TAMRA 31.2 nM, inhibitor 12.5 μM): 38.22 FU/min and 44.65 FU/min and 65.69 FU/min
Initial velocity (FU/min) (BRISC; di-Ub-TAMRA 62.5 nM, inhibitor 48 nM): 182.7 FU/min and 137.5 FU/min and 123.2 FU/min
Initial velocity (FU/min) (BRISC; di-Ub-TAMRA 62.5 nM, inhibitor 195 nM): 166.2 FU/min and 105.9 FU/min and 106.4 FU/min
Initial velocity (FU/min) (BRISC; di-Ub-TAMRA 62.5 nM, inhibitor 781 nM): 126.7 FU/min and 95.78 FU/min and 99.98 FU/min
Initial velocity (FU/min) (BRISC; di-Ub-TAMRA 62.5 nM, inhibitor 3.12 μM): 70.11 FU/min and 76.58 FU/min and 69.67 FU/min
Initial velocity (FU/min) (BRISC; di-Ub-TAMRA 62.5 nM, inhibitor 12.5 μM): 34.93 FU/min and 52.19 FU/min and 58.9 FU/min
Initial velocity (FU/min) (BRISC; di-Ub-TAMRA 62.5 nM, inhibitor 50 μM): 28.22 FU/min and 40.49 FU/min and 46.74 FU/min
Initial velocity (FU/min) (BRISC; di-Ub-TAMRA 125 nM, inhibitor 48 nM): 467.2 FU/min and 386.6 FU/min and 434.5 FU/min
Initial velocity (FU/min) (BRISC; di-Ub-TAMRA 125 nM, inhibitor 195 nM): 414.6 FU/min and 331.3 FU/min and 418.4 FU/min
Initial velocity (FU/min) (BRISC; di-Ub-TAMRA 125 nM, inhibitor 781 nM): 304.6 FU/min and 276.4 FU/min and 303.4 FU/min
Initial velocity (FU/min) (BRISC; di-Ub-TAMRA 125 nM, inhibitor 3.12 μM): 173.8 FU/min and 175.1 FU/min and 170.4 FU/min
Initial velocity (FU/min) (BRISC; di-Ub-TAMRA 125 nM, inhibitor 12.5 μM): 92.02 FU/min and 100.3 FU/min and 111.4 FU/min
Initial velocity (FU/min) (BRISC; di-Ub-TAMRA 125 nM, inhibitor 50 μM): 36.3 FU/min and 46.67 FU/min and 63.46 FU/min
Initial velocity (FU/min) (BRISC; di-Ub-TAMRA 250 nM, inhibitor 48 nM): 794.1 FU/min and 722.2 FU/min and 770.5 FU/min
Initial velocity (FU/min) (BRISC; di-Ub-TAMRA 250 nM, inhibitor 195 nM): 732.8 FU/min and 688 FU/min and 641.2 FU/min
Initial velocity (FU/min) (BRISC; di-Ub-TAMRA 250 nM, inhibitor 781 nM): 548.6 FU/min and 487.2 FU/min and 518.3 FU/min
Initial velocity (FU/min) (BRISC; di-Ub-TAMRA 250 nM, inhibitor 3.12 μM): 309.4 FU/min and 322.6 FU/min and 305.6 FU/min
Initial velocity (FU/min) (BRISC; di-Ub-TAMRA 250 nM, inhibitor 12.5 μM): 178.9 FU/min and 174 FU/min and 179.5 FU/min
Initial velocity (FU/min) (BRISC; di-Ub-TAMRA 250 nM, inhibitor 50 μM): 67.25 FU/min and 84.89 FU/min and 62.1 FU/min
Initial velocity (FU/min) (BRISC; di-Ub-TAMRA 500 nM, inhibitor 48 nM): 1729 FU/min and 1553 FU/min and 1273 FU/min
Initial velocity (FU/min) (BRISC; di-Ub-TAMRA 500 nM, inhibitor 195 nM): 1442 FU/min and 1370 FU/min and 1434 FU/min
Initial velocity (FU/min) (BRISC; di-Ub-TAMRA 500 nM, inhibitor 781 nM): 1085 FU/min and 985.1 FU/min and 1129 FU/min
Initial velocity (FU/min) (BRISC; di-Ub-TAMRA 500 nM, inhibitor 3.12 μM): 624.9 FU/min and 642.2 FU/min and 551.1 FU/min
Initial velocity (FU/min) (BRISC; di-Ub-TAMRA 500 nM, inhibitor 12.5 μM): 332.6 FU/min and 297.9 FU/min and 255.2 FU/min
Initial velocity (FU/min) (BRISC; di-Ub-TAMRA 500 nM, inhibitor 50 μM): 109.3 FU/min and 143.3 FU/min and 196.9 FU/min
Initial velocity (FU/min) (BRISC; di-Ub-TAMRA 1000 nM, inhibitor 48 nM): 2734 FU/min and 2460 FU/min and 2836 FU/min
Initial velocity (FU/min) (BRISC; di-Ub-TAMRA 1000 nM, inhibitor 195 nM): 2231 FU/min and 2296 FU/min and 2566 FU/min
Initial velocity (FU/min) (BRISC; di-Ub-TAMRA 1000 nM, inhibitor 781 nM): 1629 FU/min and 1647 FU/min and 1858 FU/min
Initial velocity (FU/min) (BRISC; di-Ub-TAMRA 1000 nM, inhibitor 50 μM): 213.3 FU/min and 360.7 FU/min and 415.9 FU/min
BRISC dimers detected by native MS (BRISC (FL)): BRISC dimers with 4:4:4:4 stoichiometry were detected
